EC50 data for 83 compounds are collected here from PubChem BioAssay AID1959 (Broad Institute, 2009).

The structures appear in SMILES notation. Active and inactive are the calls of the source.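 How the source made its calls: active means growth-inhibition EC50 no more than tenfold above the top tested dose; inconclusive means flat fit between 30% and 70% inhibition, or unreliable fit; inactive means EC50 more than tenfold above the top tested dose.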

This test deals with E. coli NEB5alpha growth, BacTiter-Glo luminescence, 4 h. Nature of the test: antibacterial activity against E. coli NEB5alpha – luminescence, counter-screen for MEX-5/POS-1 RNA-binding inhibitor project, dose response (AID 1959).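 Further: pUC19-transformed ampicillin-resistant cells grown in LB with ampicillin.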
The EC50 is the concentration at which the effect is half-maximal. For the compound `CN1c2ccc(C=O)c3c(C=O)ccc(c23)N(C)C1(C)C`, the EC50 was > 11 µM (inactive).

For the compound `O=C(Nc1ccccc1F)c1coc(=O)c(Br)c1`, the EC50 was > 11 µM (inactive).

Take `COc1cc2c(cc1OC)C(c1ccc(-c3ccc(Cl)cc3Cl)o1)=NCC2`: the EC50 was > 11 µM (inactive).

For the compound `Cc1ccc(-n2c(=O)c(C#N)cc3c(=O)n4ccccc4nc32)cc1C`, the EC50 is > 11 µM (inactive).

In the case of `COc1cccc(C2C(C(=O)c3cc4cccc(OC)c4o3)=C(O)C(=O)N2c2cc(C)on2)c1OC` (stereo not drawn), the EC50 was > 11 µM (inactive).

Take `O=C(O[C@@H]1Cc2c(O)cc(O)cc2O[C@@H]1c1cc(O)c(O)c(O)c1)c1cc(O)c(O)c(O)c1`: the EC50 was > 11 µM (inactive).

In the case of `CCN(CC)c1ccc2cc(C#N)c(=O)oc2c1`, the EC50 was > 11 µM (inactive).

For the compound `O=c1oc2ccc(Cl)cc2nc1/C=C(\O)c1ccco1`, the EC50 is > 11 µM (inactive).

Take `CC(C)OC(=O)c1nn2c(C(F)(F)F)cc(-c3ccc(Br)o3)nc2c1Br`: the EC50 is > 11 µM (inactive).

Turning to `COC(=O)c1ccc(-n2c(CCC(=O)O)ccc2-c2ccccc2)cc1`, the EC50 is > 11 µM (inactive).

`COc1ccc(Nc2nc3ccccc3nc2NS(=O)(=O)c2cccs2)c(OC)c1`: the EC50 was > 11 µM (inactive).

As for `C/C(=N\Nc1ccc([N+](=O)[O-])cc1[N+](=O)[O-])c1cc2c(ccc3ccccc32)oc1=O`, the EC50 is > 11 µM (inactive).

Consider `Cc1cc(C(=O)N/N=C/c2cc(Cl)cc([N+](=O)[O-])c2O)n[nH]1`, for which the EC50 was > 11 µM (inactive).

Take `CC(C)c1nnc(N2C(=O)C(O)=C(C(=O)c3cccs3)C2c2ccccc2)s1` (stereo not drawn): the EC50 was > 11 µM (inactive).

For `Cc1nc(S/C(=C/c2ccc(-c3ccc(C(=O)O)cc3)o2)C(=O)O)n[nH]1`, the EC50 was > 11 µM (inactive).

Take `N#CC(C(=O)NCc1ccccc1)c1nc2ccccc2nc1N1CCCC1` (stereo not drawn): the EC50 was > 11 µM (inactive).

With `Cc1nc(S/C(=C/c2ccc(-c3cccc(Cl)c3)o2)C(=O)O)n[nH]1`, the EC50 was > 11 µM (inactive).

Consider `CCC1=NN2C(=N)/C(=C\c3ccc(SCc4ccco4)o3)C(=O)N=C2S1`, for which the EC50 is > 11 µM (inactive).

As for `Cc1c(CN2CCCCC2)c(O)n(CCCO)c(=O)c1C#N`, the EC50 was > 11 µM (inactive).

With `CN1CCC2(CC1)C(C#N)=C(N)NC(S)=C2C#N`, the EC50 is > 11 µM (inactive).

Turning to `Cc1ccccc1NC(=O)CN1C(=O)S/C(=C\c2ccc(-c3cc(C(=O)O)ccc3C)o2)C1=O`, the EC50 was > 11 µM (inactive).

Turning to `CCOC(=O)C1=C(O)/C(=C/c2cn(CC(=O)N3CCCC3)c3ccccc23)SC1=Nc1ccccc1`, the EC50 is > 11 µM (inactive).

`COc1ccc(C2C(C#N)=C(N)OC3=C2C(=O)CCC3)c(OC)c1OC` (stereo not drawn): the EC50 was > 11 µM (inactive).

For the compound `O=C1NC(=O)N(c2ccccc2)C(=O)/C1=C/c1coc2ccc(O)cc2c1=O`, the EC50 is > 11 µM (inactive).

For the compound `NS(=O)(=O)c1ccc(NC(=S)NNC(=O)CCC(=O)Nc2ccccc2Cl)cc1`, the EC50 was > 11 µM (inactive).

With `Cc1cc(C)cc(N2C(=O)/C(=C\c3ccc(N4CCN(C)CC4)o3)C(=O)NC2=S)c1`, the EC50 was > 11 µM (inactive).

Consider `COc1ccc(/C=C/c2nc3sc4c(c3c(=O)o2)CCC4)cc1`, for which the EC50 is > 11 µM (inactive).

With `Cc1cc(C)cc(N2C(=O)NC(=O)/C(=C\c3cc(C)n(C)c3C)C2=O)c1`, the EC50 is > 11 µM (inactive).

In the case of `Cc1cc(C)c2c(=O)[nH]c(=O)n(Cc3ccccc3)c2n1`, the EC50 is > 11 µM (inactive).

Take `CCc1ccc(N2C(=O)NC(=O)/C(=C\c3cc(C)n(-c4cc(C(=O)O)cc(C(=O)O)c4)c3C)C2=O)cc1`: the EC50 was > 11 µM (inactive).

Take `Cn1c(O)c(/C=C2/C=CC=N2)c(=O)[nH]c1=O`: the EC50 is > 11 µM (inactive).

Take `O=C1C2=C(SCCS2)C(=O)N1c1ccccc1`: the EC50 is > 11 µM (inactive).

`Cn1ncc(Cl)c1C(=O)N/N=C/c1cccc(OC2CSC2)c1`: the EC50 was > 11 µM (inactive).

Regarding `COC(=O)CCC(=O)OC1(C)C(=O)C=C2C=C(C3CC3)N(c3ccc(CO)cc3)C=C2C1=O` (stereo not drawn), the EC50 is > 11 µM (inactive).

For `CCn1c(C)nc2cc(N)ccc21`, the EC50 is > 11 µM (inactive).

For `CC1(OC(=O)c2ccc(Cl)nc2)C(=O)C=C2C=C(C3CC3)OC=C2C1=O` (stereo not drawn), the EC50 is > 11 µM (inactive).

For the compound `CN1C(=O)C(=Cc2cn(CC(=O)N3CCCC3)c3ccccc23)C(=O)N(C)C1=O`, the EC50 was > 11 µM (inactive).

Regarding `O=C(O)c1cc(O)c2c(c1)[C@H]([C@H]1c3cc(C(=O)O)cc(O)c3C(=O)c3c(O[C@@H]4O[C@H](CO)[C@@H](O)[C@H](O)[C@H]4O)cccc31)c1cccc(OC3O[C@H](CO)[C@@H](O)[C@H](O)[C@H]3O)c1C2=O` (stereo partly drawn), the EC50 was > 11 µM (inactive).

Take `O=C(O)C(=O)/C(=C\c1cccc2ccccc12)c1ccc2ccccc2n1`: the EC50 is > 11 µM (inactive).

For `Nc1ccc2nc3c(=O)[nH]c(=S)[nH]c3nc2c1`, the EC50 is > 11 µM (inactive).

Turning to `CCCCC1=CC2=CC(=O)C(C)(OC(=O)c3cnc4ccccc4n3)C(=O)C2=CO1` (stereo not drawn), the EC50 was > 11 µM (inactive).

Consider `COc1cc(NC(=O)CSc2nnc3ccc(-c4ccncc4)nn23)cc(OC)c1`, for which the EC50 was > 11 µM (inactive).

For the compound `Cc1ccc(-c2ccccc2)n1-c1ccc(C(=O)O)cc1`, the EC50 was > 11 µM (inactive).

Regarding `N=c1c(C(=O)NC2CCCC2)cc2c(=O)n3ccccc3nc2n1Cc1ccccc1`, the EC50 was > 11 µM (inactive).

Turning to `CCCn1c(O)c(CN2CCCC(C)C2)c(C)c(C#N)c1=O` (stereo not drawn), the EC50 was > 11 µM (inactive).

`CCOC(=O)/C=c1\s/c(=C\c2ccc(C#N)cc2)c(=O)n1CC(=O)NCc1ccco1`: the EC50 was > 11 µM (inactive).

For `CC1(C)CC(=O)C2=C(C1)OC(/N=C/N1CCOCC1)=C(C#N)C2c1ccccc1` (stereo not drawn), the EC50 is > 11 µM (inactive).

With `COc1ccc(S(=O)(=O)NNC(=O)C(=O)NNc2ccccn2)cc1`, the EC50 was > 11 µM (inactive).

Regarding `CCOC(=O)N1CCC(NC(=O)C(Cc2ccccc2)NC(=O)C2CCCCC2)CC1` (stereo not drawn), the EC50 was > 11 µM (inactive).

Regarding `CN=c1scc(C)n1/N=C/c1ccc(O)c(O)c1O`, the EC50 was > 11 µM (inactive).

As for `CC1=NN(C(N)=S)C(=O)C1N=Nc1cccc(C(=O)O)c1` (stereo not drawn), the EC50 is > 11 µM (inactive).

With `Cn1cccc1/C=C1\C(=O)NC(=O)N(CCC2=CCCCC2)C1=O`, the EC50 was > 11 µM (inactive).

In the case of `COc1[nH]c(/N=C/c2ccccc2)c(C#N)c1C#N`, the EC50 is > 11 µM (inactive).

As to `COC(=O)c1ccc(-n2c(C)cc(C(=O)COC(=O)CNS(=O)(=O)c3ccc(C)cc3)c2C)cc1`, the EC50 is > 11 µM (inactive).

In the case of `CCc1ccc(C(=O)NNC(=O)c2ccc(=O)n(C)n2)cc1`, the EC50 was > 11 µM (inactive).

In the case of `Cn1c(=O)c2[nH]c(N=NNc3ccccc3F)nc2n(C)c1=O`, the EC50 was > 11 µM (inactive).

For the compound `CSCC(C)N1CCC(n2nccc2NC(=O)CCCc2ccccc2)CC1` (stereo not drawn), the EC50 was > 11 µM (inactive).

In the case of `O=C(NCc1ccccn1)C1Nc2ccc(OC(F)(F)F)cc2C2C=CCC12` (stereo not drawn), the EC50 is > 11 µM (inactive).

As for `COc1cccc(N2C(=O)NC(=O)/C(=C/c3ccc4c(c3)Cc3ccccc3-4)C2=O)c1`, the EC50 was > 11 µM (inactive).

Consider `CCC(C)n1c(=N)c(C#N)cc2c(=O)n3cc(C)ccc3nc21` (stereo not drawn), for which the EC50 was > 11 µM (inactive).

For the compound `COc1ccc(C(=O)/C=C2\NCC3c4ccccc4CCN3C2=O)cc1` (stereo not drawn), the EC50 is > 11 µM (inactive).

On to `CCOC(=O)C1Nc2ccc(C(=O)O)cc2C2C=CCC12` (stereo not drawn), for which the EC50 was > 11 µM (inactive).

For the compound `COc1ccc(NC(=O)NS(=O)(=O)c2ccc(C)cc2)cn1`, the EC50 is > 11 µM (inactive).

Consider `COc1cc(C2C3CN(C)CC=C3C(C#N)=C(N)C2(C#N)C#N)ccc1OC(C)C` (stereo not drawn), for which the EC50 is > 11 µM (inactive).

As for `CCN1CCc2c(sc(NC(=O)c3ccc4ccccc4c3)c2C(N)=O)C1`, the EC50 was > 11 µM (inactive).

For the compound `O=C1CS/C(=N/N=C/c2cccs2)N1`, the EC50 is > 11 µM (inactive).

With `CC(=O)c1cc(NC(=O)c2cccc(C(F)(F)F)c2)c(=O)oc1/C=C/N(C)C`, the EC50 is > 11 µM (inactive).

In the case of `Cc1ccc(N/N=C/c2c(C)c(C#N)c(=O)n(C)c2O)cc1C`, the EC50 was > 11 µM (inactive).

Turning to `COc1ccc(S(=O)(=O)C(C#N)c2nc3ccccc3nc2N2CCC(C)CC2)cc1` (stereo not drawn), the EC50 is > 11 µM (inactive).

Turning to `C=CCOn1c(=O)c(-c2cc3ccccc3o2)[n+]([O-])c2ccccc21`, the EC50 is > 11 µM (inactive).

Turning to `CCOCCCn1c(=NC(=O)c2cccs2)c(C#N)cc2c(=O)n3ccccc3nc21`, the EC50 is > 11 µM (inactive).

On to `O=C(/C=C/c1ccco1)NC(=S)Nc1ccc(C(=O)O)cc1`, for which the EC50 is > 11 µM (inactive).

With `O=C(NCC1CCCO1)c1ccc(CS(=O)(=O)Cc2ccc(F)cc2)o1` (stereo not drawn), the EC50 is > 11 µM (inactive).

With `CCOC(=O)c1cc(=O)n2nc(-c3ccc(C)cc3)nc2s1`, the EC50 is > 11 µM (inactive).

Regarding `CCOC(=O)/C(C#N)=C/c1cc2ccccc2nc1N1CCCCC1`, the EC50 is > 11 µM (inactive).

With `CN1CCc2cccc3c2[C@H]1Cc1ccc(O)c(O)c1-3`, the EC50 was > 11 µM (inactive).

Turning to `O=C(N/N=C/c1c(O)n(Cc2ccc(F)cc2)c(=O)[nH]c1=O)c1ccccc1O`, the EC50 was > 11 µM (inactive).

For `CN(C)c1ccc(/C=N/NC2=NS(=O)(=O)c3ccccc32)cc1`, the EC50 was > 11 µM (inactive).

Consider `C=CCN=c1scc(-c2ccco2)n1/N=C/c1ccc(O)c(O)c1O`, for which the EC50 is > 11 µM (inactive).

For `Cn1c(=O)c2[nH]c(N/N=C(/C#N)C(N)=O)nc2n(C)c1=O`, the EC50 was > 11 µM (inactive).

Consider `O=C(O)CCC(=O)N1N=C(c2cccs2)CC1c1cn(-c2ccccc2)nc1-c1ccccc1` (stereo not drawn), for which the EC50 is > 11 µM (inactive).

For `O=C(O)C1Nc2c(O)cc(Cl)c([N+](=O)[O-])c2C2C=CCC12` (stereo not drawn), the EC50 is > 11 µM (inactive).

Regarding `Cc1ccc(S(=O)(=O)NNc2nc3ccccc3nc2C(F)(F)F)cc1`, the EC50 is > 11 µM (inactive).
